In patent US12466835B1, “Solid forms of macrocyclic compounds, salts and formulations thereof, and methods of preparing and using the same” (Kura Oncology, Inc., priority 2023, dated 2025):
≈ marks a conversion by molar mass, not a printed value.

Assays:
Type in all cases: physicochemical
[1] = Solubility testing of solid forms in water, SGF, FaSSIF and FeSSIF media
Procedure: About 15 mg of test material was weighed into a sample vial and then 3.0 mL of water, simulated gastric fluid (SGF), fasted state simulated intestinali fluid (FaSSIF), or fed state simulated intestinal fluid (FeSSIF) media was added. The resulting suspensions were shaken at 37° C. for up to 24 hours. At 0.5, 2, and 24 hours, suspensions were filtered, and test material concentrations in the filtrates were analyzed by HPLC. Residual solids were collected for analysis.

[2] = Four-week excipient compatibility study under accelerated stress conditions; conditions: four weeks, 40° C./75% relative humidity and 60° C. accelerated stress conditions
[3] = Stability testing of blended samples exposed to high temperature and/or humidity for four weeks
Description: Compound 1, microcrystalline cellulose, D-mannitol, croscarmellose sodium, and magnesium stearate were blended using standard methods. Results from stability testing from exposure of blended samples to high temperature and/or humidity for four weeks are provided in Table 8.

[4] = Powder properties of Form 1 (bulk density, flowability)
Description: Use of a glidant, disintegrant, and lubricant allowed for acceptable tableting and disintegration characteristics.

[5] = FaSSIF, pH of media 6.5, 37° C.
[6] = FeSSIF, pH of media 5.0, 37° C.
[7] = FaSSIF, pH of media 6.5, 37° C., listed as Free base (Form 1)
[8] = FeSSIF, pH of media 5.0, 37° C., listed as Free base (Form 1)
[9] = SGF, pH of media 1.2, 37° C., listed as Free base (Form 1)
[10] = Water, 37° C., listed as Free base (Form 1)
[11] = FaSSIF, pH of media 6.5, 37° C., listed as Fumarate (Form 8)
[12] = FeSSIF, pH of media 5.0, 37° C., listed as Fumarate (Form 8)
[13] = SGF, pH of media 1.2, 37° C., listed as Fumarate (Form 8)
[14] = Water, 37° C., listed as Fumarate (Form 8)
[15] = SGF, pH of media 1.2, 37° C., listed as 1-Hydroxy-2-naphthoate (Form 13)
[16] = Water, 37° C., listed as 1-Hydroxy-2-naphthoate (Form 13)

In the case of `Cn1cncc1[C@@]1(N)c2ccc(C#N)c(c2)COc2cccc(c2)-c2cc(C#N)nc3ccc1cc23` [Amorphous free base, (S)-3-amino-3-(1-methyl-1H-imidazol-5-yl)-6-oxa-2(4,6)-quinolina-1,4(1,3)-dibenzenacyclohexaphane-2^2,4^4-dicarbonitrile], the “Solubility (mg/mL) 2 h” value [1, 5] is reported as 0.085 mg/mL (≈ 181 µM), the “Solubility (mg/mL) 24 h” value [1, 5] is reported as 0.09 mg/mL (≈ 192 µM) and the “Solubility (mg/mL) 2 h” value [1, 6] is reported as 1.22 mg/mL (≈ 2600 µM). The “Solubility (mg/mL) 24 h” value [1, 6] was 1.29 mg/mL (≈ 2750 µM), the “Solubility (mg/mL) 2 h” value ([1]; SGF, pH of media 1.2, 37° C.) was ~5 mg/mL (≈ 10700 µM) and the “Solubility (mg/mL) 24 h” value ([1]; SGF, pH of media 1.2, 37° C.) was ~5 mg/mL (≈ 10700 µM). The “Solubility (mg/mL) 2 h” value ([1]; Water, 37° C.) was 0.002 mg/mL (≈ 4.27 µM) and the “Solubility (mg/mL) 24 h” value ([1]; Water, 37° C.) was 0.0009 mg/mL (≈ 1.92 µM).

In the case of `Cn1cncc1[C@@]1(N)c2ccc(C#N)c(c2)COc2cccc(c2)-c2cc(C#N)nc3ccc1cc23` [Compound 1, (S)-3-amino-3-(1-methyl-1H-imidazol-5-yl)-6-oxa-2(4,6)-quinolina-1,4(1,3)-dibenzenacyclohexaphane-2^2,4^4-dicarbonitrile], the “Compatibility with Tablet Formulation 1 excipients” value [2] is reported as “no incompatibility” and the “% Purity 60° C.” value [3] is reported as 99.35%.

With `Cn1cncc1[C@@]1(N)c2ccc(C#N)c(c2)COc2cccc(c2)-c2cc(C#N)nc3ccc1cc23` [Form 1, (S)-3-amino-3-(1-methyl-1H-imidazol-5-yl)-6-oxa-2(4,6)-quinolina-1,4(1,3)-dibenzenacyclohexaphane-2^2,4^4-dicarbonitrile] the bulk density [4] was “about 0.2 g/mL”, the “Solubility (mg/mL) 2 h” value [1, 7] was 0.0066 mg/mL (≈ 14.1 µM) and the “Solubility (mg/mL) 24 h” value [1, 7] was 0.011 mg/mL (≈ 23.5 µM). The “Solubility (mg/mL) 2 h” value [1, 6] was ~0.31 mg/mL (≈ 662 µM), the “Solubility (mg/mL) 2 h” value [1, 8] was 0.31 mg/mL (≈ 662 µM) and the “Solubility (mg/mL) 24 h” value [1, 6] was ~0.33 mg/mL (≈ 704 µM). For the same compound, the “Solubility (mg/mL) 24 h” value [1, 8] was 0.33 mg/mL (≈ 704 µM), the “Solubility (mg/mL) 2 h” value ([1]; SGF, pH of media 1.2, 37° C.) was ~5.04 mg/mL (≈ 10800 µM) and the “Solubility (mg/mL) 2 h” value [1, 9] was 5.04 mg/mL (≈ 10800 µM). The “Solubility (mg/mL) 24 h” value ([1]; SGF, pH of media 1.2, 37° C.) was ~3.67 mg/mL (≈ 7830 µM), the “Solubility (mg/mL) 24 h” value [1, 9] was 3.67 mg/mL (≈ 7830 µM) and the “Solubility (mg/mL) 2 h” value [1, 10] was “<LOD”. The “Solubility (mg/mL) 24 h” value [1, 10] was “<LOD”.

In the case of `Cn1cncc1[C@@]1(N)c2ccc(C#N)c(c2)COc2cccc(c2)-c2cc(C#N)nc3ccc1cc23` [Form 8, (S)-3-amino-3-(1-methyl-1H-imidazol-5-yl)-6-oxa-2(4,6)-quinolina-1,4(1,3)-dibenzenacyclohexaphane-2^2,4^4-dicarbonitrile], the “Solubility (mg/mL) 2 h” value [1, 11] is reported as 0.16 mg/mL (≈ 342 µM), the “Solubility (mg/mL) 24 h” value [1, 11] is reported as 0.45 mg/mL (≈ 960 µM) and the “Solubility (mg/mL) 2 h” value [1, 6] is reported as ~1.26 mg/mL (≈ 2690 µM). For the same compound, the “Solubility (mg/mL) 2 h” value [1, 12] was 1.26 mg/mL (≈ 2690 µM), the “Solubility (mg/mL) 24 h” value [1, 6] was ~1.15 mg/mL (≈ 2450 µM) and the “Solubility (mg/mL) 24 h” value [1, 12] was 1.15 mg/mL (≈ 2450 µM). For the same compound, the “Solubility (mg/mL) 2 h” value ([1]; SGF, pH of media 1.2, 37° C.) was ≥ 5 mg/mL, the “Solubility (mg/mL) 2 h” value [1, 13] was ~5 mg/mL (≈ 10700 µM) and the “Solubility (mg/mL) 24 h” value ([1]; SGF, pH of media 1.2, 37° C.) was ≥ 5 mg/mL. The “Solubility (mg/mL) 24 h” value [1, 13] was ~5 mg/mL (≈ 10700 µM), the “Solubility (mg/mL) 2 h” value [1, 14] was 0.43 mg/mL (≈ 918 µM) and the “Solubility (mg/mL) 24 h” value [1, 14] was 0.34 mg/mL (≈ 726 µM).

In the case of `Cn1cncc1[C@@]1(N)c2ccc(C#N)c(c2)COc2cccc(c2)-c2cc(C#N)nc3ccc1cc23` [Form 13, (S)-3-amino-3-(1-methyl-1H-imidazol-5-yl)-6-oxa-2(4,6)-quinolina-1,4(1,3)-dibenzenacyclohexaphane-2^2,4^4-dicarbonitrile], the “Solubility (mg/mL) 2 h” value ([1]; FaSSIF, pH of media 6.5, 37° C., listed as 1-Hydroxy-2-naphthoate (Form 13)) is reported as 0.086 mg/mL (≈ 184 µM), the “Solubility (mg/mL) 2 h” value [1, 6] is reported as ~0.82 mg/mL (≈ 1750 µM) and the “Solubility (mg/mL) 2 h” value ([1]; FeSSIF, pH of media 5.0, 37° C., listed as 1-Hydroxy-2-naphthoate (Form 13)) is reported as 0.82 mg/mL (≈ 1750 µM). For the same compound, the “Solubility (mg/mL) 2 h” value ([1]; SGF, pH of media 1.2, 37° C.) was ~4.05 mg/mL (≈ 8640 µM), the “Solubility (mg/mL) 2 h” value [1, 15] was 4.05 mg/mL (≈ 8640 µM) and the “Solubility (mg/mL) 24 h” value ([1]; SGF, pH of media 1.2, 37° C.) was ~4.12 mg/mL (≈ 8790 µM). For the same compound, the “Solubility (mg/mL) 24 h” value [1, 15] was 4.12 mg/mL (≈ 8790 µM), the “Solubility (mg/mL) 2 h” value [1, 16] was 0.020 mg/mL (≈ 42.7 µM) and the “Solubility (mg/mL) 24 h” value [1, 16] was 0.013 mg/mL (≈ 27.7 µM).
